Ends that are not written are not given here.
Legend:
αIIbβ3 CHO K1 cells [1] = experiment: Cell adhesion assay: αIIbβ3 CHO K1 cells on SAMs presenting immobilized peptides; type: cell-based, human; details: 0.5% peptide SAM; in presence of 300 μM cRGDFG
Method: Monolayers were prepared as described (Houseman, et al., 2003). Glass coverslips were sonicated for 30 minutes in deionized ultrafiltered (DIUF) water and then 30 minutes in ethanol and then dried under a stream of nitrogen. Titanium (4 nm) and then gold (29 nm) were evaporated onto the coverslips using an electron beam evaporator (Boc Edwards) at a rate of 0.05-0.10 nm/s and at a pressure of 1 μTorr. The gold-coated coverslips were immersed in an ethanolic solution of maleimide-terminated disulfide (1%) and tri(ethylene glycol)-terminated disulfide (99%) overnight at room temperature. The total disulfide concentration was 1 mM. The substrates were washed with DIUF water, ethanol and then dried under a stream of nitrogen.
The pcDNA3.1 vectors that express human αIIb or β3, respectively, have been described previously (see e.g., Litvinov et al. (2006) Biochemistry, 45: 4957-4964). CHO K1, BHK 21 and HT1080 cells were purchased from ATCC. All CHO cells were cultured at 37° C. and 5% CO2 using F12K medium supplemented with 10% FBS and pen/strep. […] CHO K1 cells were transfected with αIIb and β3 cDNA with FuGENE following the supplier's protocol. Transfected cells were selected with 1 mg/mL zeocin and 1 mg/mL geneticin.
(§1) Cysteine-terminated peptides were immobilized onto maleimide-presenting SAMs by adding 40 μL of 1 mM peptide solution to the biochip and incubating at 37° C. for 1 hour. Substrates were rinsed with DIUF water and ethanol and dried under a stream of nitrogen. αIIbβ3 CHO K1 cells were detached from culture plates with 1 mM EGTA/2 mM EDTA in PBS (phosphate-buffered saline), rinsed with serum-free F-12K medium, centrifuged and resuspended in serum-free F-12K medium supplemented with cRGDFG (SEQ ID NO: 12) (300 μM) and 1× penicillin/streptomycin. After 15-minute of incubation, cells (200,000/mL) were added to substrates in 24-well culture plates. After 2 hour incubation at 37° C. and 5% CO2, media was exchanged for F-12K medium supplemented with 10% FBS, 1× penicillin/streptomycin and cRGDFG (SEQ ID NO: 12) (300 μM). After 2 hours, the substrates were washed gently with warm PBS, and adherent cells were immediately fixed with 4% formaldehyde for 30 minutes, visualized with a 20× objective of a Zeiss Axiovert 200 inverted microscope, and photographed. For cell adhesion assays mediated by Ac-GXGDSC (SEQ ID NO: 26), αIIbβ3 CHO K1 cells were incubated on a 5×4 circle (1 mm diameter) array for 1 hour with serum-free F-12K medium supplemented with cRGDFG (SEQ ID NO: 12) (300 μM) and 1× penicillin/streptomycin, followed by media exchange to F-12K medium supplemented with 10% FBS, 1× penicillin/streptomycin and cRGDFG (SEQ ID NO: 12) (300 μM. The substrates were washed with warm PBS, and adherent cells were immediately fixed and permeabilized with 4% formaldehyde and 0.5% Triton-X for 30 minutes. Fixed cells were stained with DAPI, visualized and photographed with a 20× objective as described. The number of adherent cells per field of view was counted using Image J software. Cells were counted in at least three fields for each circle, and each experiment was repeated 3 times. The degree of adhesion is reported as a percentage of cells that adhere relative to control experiments with the peptide Ac-GRGDSC (SEQ ID NO: 28).
Monolayers were prepared that presented a mixture of maleimide groups and tri(ethylene glycol) groups with the former present at a density of 0.5% (relative to total alkanethiolate). The monolayers were treated with cysteine-terminated peptides to immobilize the ligands (FIG. 1A). In each case mass spectrometry was used to verify immobilization of the peptides in high yield (Su et al., 2002).
The adhesion and spreading of αIIbβ3 CHO K1 cells to monolayers presenting GRGDSC (SEQ ID NO: 11), HHLGGAKQAGDVC (SEQ ID NO: 21) and a mixture of both peptides was compared. […]

αIIbβ3 CHO K1 cells [2] = experiment: Immunostaining of cytoskeletal structure of αIIbβ3 CHO K1 cells adherent to model substrates; type: cell-based, human; details: monolayers presenting the peptide; four hours; anti-vinculin, phalloidin, DAPI
Excerpt: αIIbβ3 CHO K1 cells were allowed to adhere and spread on substrates as described above. Substrates were washed gently with PBS, and fixed and permeabilized as described above. Cells were stained with monoclonal anti-vinculin IgG to visualize focal adhesions, phalloidin to visualize stress fibers and DAPI to visualize the nucleus. Substrates were rinsed thoroughly with PBS and mounted on microscope slides with Aqua Poly/Mount (PolySciences Inc.). Substrates were visualized with a 100× objective of a Zeiss Axiovert 200 inverted microscope, and photographed.
The assembly of focal adhesion and actin stress fibers of αIIbβ3 CHO K1 cells adhered to monolayers presenting GRGDSC (SEQ ID NO: 11), HHLGGAKQAGDVC (SEQ ID NO: 21) a mixture of both peptides, and adsorbed Fbg (FIGS. 3, E, F, G and H respectively) was compared. The αIIbβ3 CHO K1 cells were allowed to attach and spread on the monolayers for four hours, and then fixed the cells and probed with anti-vinculin IgG to visualize focal adhesions and with phalloidin-AF 488 to visualize actin stress fibers.

platelets [3] = details: cited from earlier work
platelets [4] = details: cited from earlier work; remark: listed apart in the source
αIIbβ3 = target: T1, αIIbβ3 (Homo sapiens, UniProt P05106+P08514); details: cited from earlier work
T1 construct: host or cells: platelets

αIIbβ3 CHO K1 cells [5] = experiment: Blocking of αIIbβ3 CHO K1 cell adhesion to GRGDSC monolayer; type: cell-based, human
Excerpt: (§2) FIG. 2 depicts the results of FACS analyses and binding studies of a αIIbβ3 expressing CHO K1 cell line. […] Transfected αIIbβ3 CHO K1 cells express αIIbβ3 at the cell surface, as detected by anti-β3 and PAC-1 antibody (bottom) (the middle and right hand lanes show anti-β3 antibody and PAC-1 antibody binding, respectively). Panel B is a graph of the concentration of cRGDFG (SEQ ID NO: 12; where F is a D amino acid) versus adhesion of αIIbβ3 CHO K1 cells. The peptide cRGDFG (SEQ ID NO: 12), a cyclic peptide that specifically binds to α5 and αV integrins, inhibits CHO K1 cell adhesion to 0.5% GRGDSC (SEQ ID NO: 11) SAMs. Panels C-F are photomicrographs of cells adhering to GRGDSC (SEQ ID NO: 11).
(§3) CHO K1 cells were used that were transfected with the αIIbβ3 receptor, as described previously (Salsmann et al., 2005). Cells were transfected with pcDNA3.1 vectors that coded for αIIb and β3 using FuGENE6 and analyzed by FACS after labeling with the PAC-1 (anti-αIIbβ3) and H-96 (anti-β3) antibodies. Approximately 30% of the cells expressed the receptor (FIG. 2A). Because the CHO K1 cells also express αv and α5 integrins on their surfaces, adhesion experiments were performed in the presence of the cyclic peptide cRGDFG (SEQ ID NO: 12), where F is a D amino acid. […] All experiments that follow, unless stated otherwise, were performed in the presence of 300 μM cRGDFG (SEQ ID NO: 12).

αIIbβ3 CHO K1 cells [6] = experiment: Ac-GXGDSC peptide array cell adhesion, αIIbβ3 CHO K1 cells; type: cell-based, human; details: 0.5% peptide spots; 300 μM cRGDFG
Method: as §1
To further assay the binding of peptide ligands to the […] integrin for XGD peptide ligands, an array was used to assess the adhesion of cells to peptides having the arginine residue substituted with each amino acid other than cysteine (e.g., A, D, E, F, G, H, I, K, L, M, N, P, Q, R, S, T, V, W, and Y). The library of Ac-GXGDSC (SEQ ID NO: 26) peptides was synthesized and immobilized in an array with each peptide occupying a 1 mm diameter region of the monolayer (FIG. 61). A suspension of αIIbβ3 CHO K1 cells was applied to the entire array and cells were allowed to attach to regions presenting the various peptides. The substrates were then rinsed and stained with DAPI, and the cells were counted to determine the relative efficiency of cell attachment to peptides in the library. […] Substitution with leucine and isoleucine were also active, though at a lower level.

HT1080 cells = experiment: Ac-GXGDSC peptide array cell adhesion, HT1080 cells; type: cell-based
BHK 21 cells = experiment: Ac-GXGDSC peptide array cell adhesion, BHK 21 cells; type: cell-based
CHO-K1 cells = experiment: Ac-GXGDSC peptide array cell adhesion, CHO K1 cells; type: cell-based
Method: Cysteine-terminated peptides were immobilized onto maleimide-presenting SAMs by adding 40 μL of 1 mM peptide solution to the biochip and incubating at 37° C. for 1 hour. Substrates were rinsed with DIUF water and ethanol and dried under a stream of nitrogen. αIIbβ3 CHO K1 cells were detached from culture plates with 1 mM EGTA/2 mM EDTA in PBS (phosphate-buffered saline), rinsed with serum-free F-12K medium, centrifuged and resuspended in serum-free F-12K medium supplemented with cRGDFG (SEQ ID NO: 12) (300 μM) and 1× penicillin/streptomycin. After 15-minute of incubation, cells (200,000/mL) were added to substrates in 24-well culture plates. After 2 hour incubation at 37° C. and 5% CO2, media was exchanged for F-12K medium supplemented with 10% FBS, 1× penicillin/streptomycin and cRGDFG (SEQ ID NO: 12) (300 μM). After 2 hours, the substrates were washed gently with warm PBS, and adherent cells were immediately fixed with 4% formaldehyde for 30 minutes, visualized with a 20× objective of a Zeiss Axiovert 200 inverted microscope, and photographed. […] The number of adherent cells per field of view was counted using Image J software. Cells were counted in at least three fields for each circle, and each experiment was repeated 3 times. […]

CHO K1 cells = experiment: Blocking of CHO K1 cell attachment to GRGDSC monolayer; type: cell-based; details: 300 μM
Excerpt: as §2, §3

αvβ3 = αvβ3 (Homo sapiens, UniProt P05106+P06756); details: cited from earlier work
Sequence of αvβ3 (P06756 31-889 limits assumed): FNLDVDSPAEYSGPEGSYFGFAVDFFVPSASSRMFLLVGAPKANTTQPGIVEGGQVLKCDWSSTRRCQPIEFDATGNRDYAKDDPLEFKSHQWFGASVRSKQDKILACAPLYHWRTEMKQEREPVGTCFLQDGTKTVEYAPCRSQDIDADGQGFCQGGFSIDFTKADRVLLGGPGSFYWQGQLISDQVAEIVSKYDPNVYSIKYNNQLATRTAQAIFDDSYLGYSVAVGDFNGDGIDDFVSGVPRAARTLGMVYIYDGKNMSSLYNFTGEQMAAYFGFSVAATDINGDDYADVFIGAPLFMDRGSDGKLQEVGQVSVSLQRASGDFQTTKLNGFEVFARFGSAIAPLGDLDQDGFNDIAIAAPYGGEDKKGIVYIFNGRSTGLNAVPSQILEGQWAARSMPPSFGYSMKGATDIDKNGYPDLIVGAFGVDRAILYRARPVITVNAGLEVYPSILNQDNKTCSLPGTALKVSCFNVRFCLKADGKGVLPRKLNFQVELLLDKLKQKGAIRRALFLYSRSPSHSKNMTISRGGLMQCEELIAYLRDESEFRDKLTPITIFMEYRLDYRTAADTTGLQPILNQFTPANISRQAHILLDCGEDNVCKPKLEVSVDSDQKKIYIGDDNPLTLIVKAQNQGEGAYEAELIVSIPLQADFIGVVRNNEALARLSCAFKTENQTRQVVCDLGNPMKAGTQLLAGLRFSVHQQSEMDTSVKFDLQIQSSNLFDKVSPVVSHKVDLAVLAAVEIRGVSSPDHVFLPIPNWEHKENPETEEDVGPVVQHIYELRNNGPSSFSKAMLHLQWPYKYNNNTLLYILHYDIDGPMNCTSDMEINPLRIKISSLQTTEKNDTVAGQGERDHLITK
Sequence of αvβ3 (P06756 891-1048 partner limits assumed): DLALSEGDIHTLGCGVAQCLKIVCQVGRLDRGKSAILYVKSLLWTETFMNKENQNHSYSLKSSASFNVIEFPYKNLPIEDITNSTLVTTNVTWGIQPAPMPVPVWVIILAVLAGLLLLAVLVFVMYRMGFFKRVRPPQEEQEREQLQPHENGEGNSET
Sequence of αvβ3 (P05106 27-788): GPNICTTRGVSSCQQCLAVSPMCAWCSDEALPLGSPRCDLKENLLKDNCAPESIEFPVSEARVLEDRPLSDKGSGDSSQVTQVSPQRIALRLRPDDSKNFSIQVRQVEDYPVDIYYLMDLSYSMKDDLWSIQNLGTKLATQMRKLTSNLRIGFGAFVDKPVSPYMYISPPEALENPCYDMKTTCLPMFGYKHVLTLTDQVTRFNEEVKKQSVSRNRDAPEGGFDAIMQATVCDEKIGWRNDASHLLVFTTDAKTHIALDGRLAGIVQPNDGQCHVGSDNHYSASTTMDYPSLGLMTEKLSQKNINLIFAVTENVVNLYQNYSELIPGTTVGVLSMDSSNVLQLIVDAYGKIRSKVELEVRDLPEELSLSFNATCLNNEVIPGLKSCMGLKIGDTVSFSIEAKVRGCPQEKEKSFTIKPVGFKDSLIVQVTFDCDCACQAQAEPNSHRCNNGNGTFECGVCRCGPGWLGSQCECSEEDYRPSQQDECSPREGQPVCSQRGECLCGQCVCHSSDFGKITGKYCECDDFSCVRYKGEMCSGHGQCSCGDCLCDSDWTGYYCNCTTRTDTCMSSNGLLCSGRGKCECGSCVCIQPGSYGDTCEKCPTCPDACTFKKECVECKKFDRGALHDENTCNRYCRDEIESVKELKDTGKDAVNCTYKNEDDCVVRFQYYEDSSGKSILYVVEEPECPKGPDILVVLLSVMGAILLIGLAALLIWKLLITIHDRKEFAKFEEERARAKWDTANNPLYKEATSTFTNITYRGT

[7] = target: T2, human αIIbβ3 integrin on transfected CHO K1 cells (human, UniProt P08514 32-1039; P05106 27-788); experiment: adhesion of αIIbβ3 CHO cells to the peptide monolayer, 300 µM cRGDFG present
T2 construct: whole, on cells; CHO K1 cells transfected with human αIIb and β3 cDNA; about 30% of the cells expressed the receptor; also called platelet receptor; platelet integrin
Method: For cell adhesion assays mediated by Ac-GXGDSC (SEQ ID NO: 26), αIIbβ3 CHO K1 cells were incubated on a 5×4 circle (1 mm diameter) array for 1 hour with serum-free F-12K medium supplemented with cRGDFG (SEQ ID NO: 12) (300 μM) and 1× penicillin/streptomycin, followed by media exchange to F-12K medium supplemented with 10% FBS, 1× penicillin/streptomycin and cRGDFG (SEQ ID NO: 12) (300 μM. The substrates were washed with warm PBS, and adherent cells were immediately fixed and permeabilized with 4% formaldehyde and 0.5% Triton-X for 30 minutes. Fixed cells were stained with DAPI, visualized and photographed with a 20× objective as described. The number of adherent cells per field of view was counted using Image J software. Cells were counted in at least three fields for each circle, and each experiment was repeated 3 times. The degree of adhesion is reported as a percentage of cells that adhere relative to control experiments with the peptide Ac-GRGDSC (SEQ ID NO: 28).
CHO K1 cells were used that were transfected with the αIIbβ3 receptor, as described previously (Salsmann et al., 2005). Cells were transfected with pcDNA3.1 vectors that coded for αIIb and β3 using FuGENE6 and analyzed by FACS after labeling with the PAC-1 (anti-αIIbβ3) and H-96 (anti-β3) antibodies. Approximately 30% of the cells expressed the receptor (FIG. 2A). […]

Molecule: HHLGGAKQAGDVC (HHLGGAKQAGDVC-NH2) [Cys-terminated fibrinogen γ chain peptide immobilized on monolayer]
- adhesion of αIIbβ3 CHO K1 cells to monolayer presenting the peptide (αIIbβ3 CHO K1 cells [1]): adhered
- cytoskeletal structure and focal adhesions of adherent cells (αIIbβ3 CHO K1 cells [2]): well-developed cytoskeletal structures and mature focal adhesions along the perimeter

Molecule: LGGAKQAGDV (not fully specified (C-terminus)) [γ-derived peptide]
- inhibition of A2A9 binding to platelets (platelets [3]): could inhibit the binding of A2A9 to platelets
- inhibition of Fbg binding to platelets (platelets [4]): inhibited Fbg binding to platelets with an affinity comparable to that of RGDS
- less potent in inhibiting PAC-1 binding to αIIbβ3 (αIIbβ3; compared with its inhibition of Fbg binding / RGDS): 2.5 fold

Molecule: RGDS (synthesized peptide inhibitor)
- inhibition of Fbg binding to platelets (platelets [4]): blocked the binding of both PAC-1 and Fbg to platelets with equal potency
- inhibition of PAC-1 binding (αIIbβ3): blocked the binding of both PAC-1 and Fbg to platelets with equal potency

Molecule: RGD
- inhibition of A2A9 binding to platelets (platelets [3]): not

Molecule: PAC-1
- effect on adhesion of αIIbβ3 CHO K1 cells to monolayer presenting GRGDSC (αIIbβ3 CHO K1 cells [5]; PAC-1 antibody together with cyclic peptide inhibitor cRGDFG): prevented cell adhesion to the monolayer

Molecule: Ac-GRGDSC (Ac-GRGDSC-NH2)
- cell adhesion on Ac-GXGDSC array relative to Ac-GRGDSC (αIIbβ3 CHO K1 cells [6]): mediated αIIbβ3 CHO K1 cell adhesion
- cell adhesion on Ac-GXGDSC array (HT1080 cells): promoted significant cell adhesion
- cell adhesion on Ac-GXGDSC array (BHK 21 cells): promoted significant cell adhesion
- cell adhesion on Ac-GXGDSC array (CHO-K1 cells): promoted significant cell adhesion

Molecule: GRGDSC (GRGDSC-NH2) [Cys-terminated fibrinogen RGD peptide immobilized on monolayer]
- adhesion of αIIbβ3 CHO K1 cells to monolayer presenting the peptide (αIIbβ3 CHO K1 cells [1]): adhered
- cytoskeletal structure and focal adhesions of adherent cells (αIIbβ3 CHO K1 cells [2]): well-developed cytoskeletal structures and mature focal adhesions along the perimeter

Molecule: cRGDFG
- block of attachment of CHO K1 cells to monolayer presenting GRGDSC (CHO K1 cells): could efficiently block the attachment
- IC50 (αvβ3): 1.6 nM
- affinity for αvβ3 relative to αIIbβ3 integrin (αvβ3): approximately 1,400 fold
- effect on adhesion of αIIbβ3 CHO K1 cells to monolayer presenting GRGDSC (αIIbβ3 CHO K1 cells [5]; 300 μM): did not interfere with adhesion

B1: GRGDSC (SEQ ID NO: 11), immobilized on a self-assembled monolayer (peptide)
peptide: GRGDSC-NH2
modifications: not fully specified (residue 6); also: C-terminal Cys thiol linked to maleimide of monolayer
notes: also called 0.5% GRGDSC SAM
- binding result [7]: binds

B2: HHLGGAKQAGDVC (SEQ ID NO: 21), immobilized on a self-assembled monolayer (peptide)
peptide: HHLGGAKQAGDVC-NH2
modifications: not fully specified (residue 13); also: C-terminal Cys thiol linked to maleimide of monolayer
notes: also called 0.5% HHLGGAKQAGDVC SAM; γ peptide
- binding result [7]: binds

From patent publication US20120252730A1, “PLATELET AGGREGATION INHIBITORS” (UNIVERSITY OF CHICAGO, priority 2009, published 2012)
